The source of these data is the supplement of paper PMC11208160.
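Also: IS621 bridge recombinase in Escherichia coli cells against a fixed T5 target plasmid.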

A short description of the series: recombinant UMI read abundance after kanamycin selection (control-corrected) (log10(CPM+1)); higher = more efficient recombination; extreme values may be limits of the assay; sequences stand for … in AGTGCAGAGAAAATCGGCCAGTTTTCTCTGCCTGCAGTCCGCATGCCGTGGGACCCCTTGGGTTCTAACCTGTTGCCTAGATTTATGCAGCGGACTGCCTTTCTCCCAAAGTGATAAACCGG…AGGTTGGTTTCACT; site = the 11-nt donor. In outline:
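Pooled Escherichia coli screen of donor and donor-binding-loop pairs for the IS621 bridge recombinase. Each pair sits with a 12-nt UMI on a plasmid carrying a promoterless kanamycin gene. The library was co-electroporated with a target plasmid encoding a fixed target and T7-inducible recombinase, then plated with IPTG (0.07 mM) plus kanamycin, or unselected, each in two replicates. Recombinant UMIs were PCR-amplified across the donor–target junction and sequenced. Counts became CPM, averaged over replicates, scaled by control-derived factors and reported as log10(CPM+1).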
Take “CATCACACATGGACCGGTTTTCCCGGTAATCCGTATTTGGT (site CATCACACTAC)”: the “recombinant UMI read abundance (log10)” value came to 1.24.
Next, “CATCGAACATGGACCGGTTTTCCCGGTAATCCGTATTTGAT (site CATCGAACTAT)”: 0.616; “CATCGAACATGGACCGGTTTTCCCGGTAATCCGTATTTGCT (site CATCGAACTAG)”: 2.31; “CATCGGACATGGACCGGTTTTCCCGGTAATCCGTATTTGAA (site CATCGGACTTT)”: 1.53.
The value for “CATCGGGCATGGACCGGTTTTCCCGGTAATCCGTATTTGCC (site CATCGGGCTGG)” was 1.31; that for “CATCTTGCATGGACCGGTTTTCCCGGTAATCCGTATTTGCG (site CATCTTGCTCG)” was 0.00609.
Next, “CATCTTTCATGGACCGGTTTTCCCGGTAATCCGTATTTGGT (site CATCTTTCTAC)”: 0.00559; “CATGCGCCATGGACCGGTTTTCCCGGTAATCCGTATTTGTG (site CAAGCGCCTCA)”: 0.0274; “CATGCGCCATGGACCGGTTTTCCCGGTAATCCGTATTTGTG (site CACGCGCCTCA)”: 0.0136.
With “CATGCGCCATGGACCGGTTTTCCCGGTAATCCGTATTTGTG (site CAGGCGCCTCA)”, the “recombinant UMI read abundance (log10)” value is 0.025.
Next, “CATGCGCCATGGACCGGTTTTCCCGGTAATCCGTATTTGTG (site CATGCGCCTCA)”: 0.0238.
Next, “CATGGCCCATGGACCGGTTTTCCCGGTAATCCGTATTTGTT (site CAAGGCCCTAA)”: 0.0112; “CATGGCCCATGGACCGGTTTTCCCGGTAATCCGTATTTGTT (site CACGGCCCTAA)”: 0.00402.
Next, “CATGGCCCATGGACCGGTTTTCCCGGTAATCCGTATTTGTT (site CAGGGCCCTAA)”: 0.0418; “CATGGCCCATGGACCGGTTTTCCCGGTAATCCGTATTTGTT (site CATGGCCCTAA)”: 0.00575.
Consider “CATTAGCCATGGACCGGTTTTCCCGGTAATCCGTATTTGGA (site CATTAGCCTTC)”, for which the “recombinant UMI read abundance (log10)” value was determined as 0.0164.
Next, “CATTCCACATGGACCGGTTTTCCCGGTAATCCGTATTTGCA (site CATTCCACTTG)”: 1.95.
In the case of “CATTCGACATGGACCGGTTTTCCCGGTAATCCGTATTTGGG (site CAATCGACTCC)”, the “recombinant UMI read abundance (log10)” value worked out at 0.0123.
Take “CATTCGACATGGACCGGTTTTCCCGGTAATCCGTATTTGGG (site CACTCGACTCC)”: the “recombinant UMI read abundance (log10)” value came to 0.0107.
Next, “CATTCGACATGGACCGGTTTTCCCGGTAATCCGTATTTGGG (site CAGTCGACTCC)”: 0.0114.
“CATTCGACATGGACCGGTTTTCCCGGTAATCCGTATTTGGG (site CATTCGACTCC)”: the “recombinant UMI read abundance (log10)” value is 0.00677.
Take “CATTCTCCATGGACCGGTTTTCCCGGTAATCCGTATTTGAG (site CATTCTCCTCT)”: the “recombinant UMI read abundance (log10)” value amounted to 0.0129.
The value for “CATTGAACATGGACCGGTTTTCCCGGTAATCCGTATTTGTT (site CATTGAACTAA)” was 0.0984; that for “CATTGCACATGGACCGGTTTTCCCGGTAATCCGTATTTGTT (site CATTGCACTAA)” was 0.487; that for “CATTGCTCATGGACCGGTTTTCCCGGTAATCCGTATTTGAA (site CAATGCTCTTT)” was 0.335.
Next, “CATTGCTCATGGACCGGTTTTCCCGGTAATCCGTATTTGAA (site CACTGCTCTTT)”: 0.00354; “CATTGCTCATGGACCGGTTTTCCCGGTAATCCGTATTTGAA (site CAGTGCTCTTT)”: 0.351.
Next, “CATTGCTCATGGACCGGTTTTCCCGGTAATCCGTATTTGAA (site CATTGCTCTTT)”: 1.05; “CCAAATTCATGGACCGGTTTTCCCGGTAATCCGTATTTGTT (site CCAAATTCTAA)”: 0; “CCAACCCCATGGACCGGTTTTCCCGGTAATCCGTATTTGCT (site CCAACCCCTAG)”: 0.
In the case of “CCAACGGCATGGACCGGTTTTCCCGGTAATCCGTATTTGCG (site CCAACGGCTCG)”, the “recombinant UMI read abundance (log10)” value is 1.52.
The value for “CCAACTACATGGACCGGTTTTCCCGGTAATCCGTATTTGAC (site CCAACTACTGT)” was 0.998.
The value for “CCAAGGGCATGGACCGGTTTTCCCGGTAATCCGTATTTGCT (site CCAAGGGCTAG)” was 0.
Regarding “CCACCAGCATGGACCGGTTTTCCCGGTAATCCGTATTTGTA (site CCACCAGCTTA)”, the “recombinant UMI read abundance (log10)” value was 1.17.
The value for “CCACTAACATGGACCGGTTTTCCCGGTAATCCGTATTTGGA (site CAACTAACTTC)” was 0.0202; that for “CCACTAACATGGACCGGTTTTCCCGGTAATCCGTATTTGGA (site CCACTAACTTC)” was 0.235; that for “CCACTAACATGGACCGGTTTTCCCGGTAATCCGTATTTGGA (site CGACTAACTTC)” was 0.0202.
As to “CCACTAACATGGACCGGTTTTCCCGGTAATCCGTATTTGGA (site CTACTAACTTC)”, the “recombinant UMI read abundance (log10)” value turned out to be 0.0175.
The value for “CCACTATCATGGACCGGTTTTCCCGGTAATCCGTATTTGAC (site CCACTATCTGT)” was 1.02; that for “CCACTATCATGGACCGGTTTTCCCGGTAATCCGTATTTGAC (site CTAGTATCTGT)” was 0.
In the case of “CCAGAGACATGGACCGGTTTTCCCGGTAATCCGTATTTGCG (site ACAGAGACTCG)”, the “recombinant UMI read abundance (log10)” value was 0.249.
The value for “CCAGAGACATGGACCGGTTTTCCCGGTAATCCGTATTTGCG (site CCAGAGACTCG)” was 1.76.
Next, “CCAGAGACATGGACCGGTTTTCCCGGTAATCCGTATTTGCG (site GCAGAGACTCG)”: 0.0188; “CCAGAGACATGGACCGGTTTTCCCGGTAATCCGTATTTGCG (site TCAGAGACTCG)”: 0.381; “CCAGCGCCATGGACCGGTTTTCCCGGTAATCCGTATTTGTG (site CAAGCGCCTCA)”: 0.0258.
For the sequence “CCAGCGCCATGGACCGGTTTTCCCGGTAATCCGTATTTGTG (site CCAGCGCCTCA)”, the “recombinant UMI read abundance (log10)” value came to 0.045.
The value for “CCAGCGCCATGGACCGGTTTTCCCGGTAATCCGTATTTGTG (site CGAGCGCCTCA)” was 0.0423; that for “CCAGCGCCATGGACCGGTTTTCCCGGTAATCCGTATTTGTG (site CTAGCGCCTCA)” was 0; that for “CCAGCTGCATGGACCGGTTTTCCCGGTAATCCGTATTTGAT (site CCAGATGCTAT)” was 0.00428.
Next, “CCAGCTGCATGGACCGGTTTTCCCGGTAATCCGTATTTGAT (site CCAGCTGCTAT)”: 1.7.
The value for “CCAGCTGCATGGACCGGTTTTCCCGGTAATCCGTATTTGAT (site CCAGGTGCTAT)” was 0.00694; that for “CCAGCTGCATGGACCGGTTTTCCCGGTAATCCGTATTTGAT (site CCAGTTGCTAT)” was 0.00911.
